Values of other authors as cited in patent US7361766B2, “Bicyclic heterocycles as cannabinoid receptor modulators” (Bristol-Myers Squibb Company, priority 2005, dated 2008).
Like-named read-outs stand apart in the source and are kept apart here.

Experiments:
[1] = chronic administration for two weeks
CB-1 = conditions: multiple species including humans
[2] = human subjects, 16 week trial period

SMILES	body weight [1]	body weight (CB-1)	food intake (CB-1)	body weight [2]
Cc1c(C(=O)NN2CCCCC2)nn(-c2ccc(Cl)cc2Cl)c1-c1ccc(I)cc1 [AM-251]	substantial body weight reduction			
CCCCCc1cc(O)c2c(c1)OC(C)(C)[C@@H]1CCC(C)=C[C@@H]21 [Delta-9 THC, Delta-9-tetrahydrocannabinol]		weight gain	increased food intake	
Cc1c(C(=O)NN2CCCCC2)nn(-c2ccc(Cl)cc2Cl)c1-c1ccc(Cl)cc1 [SR-141716]				dose-dependently reduced body weight
CCCCC/C=C\C/C=C\C/C=C\C/C=C\CCCC(=O)NCCO [anandamide]		weight gain	increased food intake	
